Consider 21 compounds from patent US20070249620A1, “Urea Derivative” (priority 2004, published 2007).

One may read the melting point as the temperature of the solid-liquid transition.

The structures appear in SMILES notation.

One data set concerns the target T1, mouse DGAT1 (Mus musculus, UniProt Q9Z2A7).
T1 construct: made in house; host or cells: insect cells (High Five, Sf9, Sf21, etc.), baculovirus expression system (Invitrogen)
T1 sequence (Q9Z2A7 1-498): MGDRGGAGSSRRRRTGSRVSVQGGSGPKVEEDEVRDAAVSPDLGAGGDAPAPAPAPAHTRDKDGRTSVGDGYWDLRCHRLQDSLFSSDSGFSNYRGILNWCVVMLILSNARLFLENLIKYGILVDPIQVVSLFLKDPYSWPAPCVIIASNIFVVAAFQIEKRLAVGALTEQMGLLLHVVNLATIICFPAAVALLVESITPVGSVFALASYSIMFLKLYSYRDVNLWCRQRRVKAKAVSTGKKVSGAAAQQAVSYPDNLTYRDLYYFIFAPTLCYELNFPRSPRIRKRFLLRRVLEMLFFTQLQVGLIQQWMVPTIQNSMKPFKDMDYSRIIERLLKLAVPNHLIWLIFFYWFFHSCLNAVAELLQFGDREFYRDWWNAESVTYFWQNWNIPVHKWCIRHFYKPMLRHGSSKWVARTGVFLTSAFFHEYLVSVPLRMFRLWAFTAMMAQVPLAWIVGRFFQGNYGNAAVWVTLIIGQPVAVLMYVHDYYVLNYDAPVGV
Put plainly: DGAT1 inhibitory effect test (microsome fraction, [14C]-oleoyl-CoA, triglyceride radioactivity by TLC). Type of data set: biochemical. The conditions noted are these: 0.5 h; concentration of the test compound 0.1 μg/ml; mouse DGAT1 microsomes, 23° C., 30 minutes; read-out: Inhibitory ratio. Here is the method:
The cDNA which encodes mouse DGAT1 was cloned from a mouse cDNA library by polymerase chain reaction (hereinafter referred to as “PCR”) and introduced into an insect cell virus vector (baculovirus expression system, Invitrogen). After insect cells (High Five, Sf9, Sf21, etc., Invitrogen) were infected with the virus, the cells were collected in buffer A [0.1M sucrose, 50 mM KCl, 40 mM potassium phosphate (pH 7.4), 30 mM EDTA, 1% Protease inhibitor cocktail (SIGMA, P-8340)] and crushed with a Polytron homogenizer. The supernatant obtained by subjecting the homogenate to low speed centrifugal processing (10,000 ×g, 30 minutes) was further subjected to higher-speed centrifugal processing (100,000 ×g, 60 minutes) and the precipitate was resuspended in buffer A as the microsome fraction and used as DGAT1 enzyme. The DGAT1 enzyme was divided into small volumes and stored at −80° C.
(2) DGAT1 Inhibitory Effect Test
The reaction liquid of the following composition [175 mM Tris-HCl (pH 8.0), 8 mM MgCl2, 1 mg/ml BSA, 0.5 mM 1,2-dioleoyl-sn-glycerol (EtOH solution of 10-fold concentration, 10% added), 30 μM[14C]-oleoyl-CoA (about 50 mCi/mmol), 0.5% triton X-100, DGAT1 enzyme (10 μg) obtained in Test Example 1(1), test compound or vehicle (DMSO/MeOH, 7:3 solution, 5% added), total volume 50 μl] was incubated at room temperature (23° C.) for 30 minutes. A reaction terminating solution (70 μl) consisting of isopropanol/1-heptane/water (80:20:2, v/v/v) was added to the reaction solution and stirred, and subsequently stirred with water (30 μl) and 1-heptane (100 μl). The 1-heptane layer (50 μl) was spotted onto a TLC plate and developed with a developing solvent consisting of 1-hexane/diethyl ether/acetic acid (85:15:1, v/v/v). Radioactivity of triglyceride fraction was quantified by BAS2000 bio image analyzer (Fuji Film) and the inhibitory effect of the test compounds was calculated by the following formula through comparison with control. Here, radioactivity at no reaction (0 minutes incubation) was assumed as background. Inhibitory ratio=100−[(Radioactivity when test compound was added)−(Background)]/[(Radioactivity by control)−(Background)]×100

`CC(C)c1ccc(NC(=O)Nc2ccc(N3CCN(C(=O)OC(C)(C)C)CC3)cc2)cc1` [Example 22, 4-{4-[3-(4-isopropyl-phenyl)-ureido]-phenyl}-piperazine-1-carboxylic acid tert-butyl ester] showed a melting point of 210 °C. Moreover, the inhibition at 0.1 µg/mL at mouse DGAT1 was at least 50%.
Consider `CC(C)(C)OC(=O)N1CCN(c2ccc(NC(=O)Nc3ccc(C(C)(C)C)cc3)cc2)CC1` [Example 33, 4-{4-[3-(4-tert-butyl-phenyl)-ureido]-phenyl}-piperazine-1-carboxylic acid tert-butyl ester], for which the melting point fell in the range of 140 to 141 °C. Further, the inhibition at 0.1 µg/mL on mouse DGAT1 is at least 50%.
For `Cc1ccc(Cl)cc1NC(=O)Nc1ccc(N2CCN(C(=O)OC(C)(C)C)CC2)cc1` [Example 35, 4-{4-[3-(5-chloro-2-methyl-phenyl)-ureido]-phenyl}-piperazine-1-carboxylic acid tert-butyl ester] the same measures were 200 °C and at least 50%.
For `Cc1ccc(F)c(NC(=O)Nc2ccc(N3CCN(C(=O)OC(C)(C)C)CC3)cc2)c1` [Example 37, 4-{4-[3-(2-fluoro-5-methyl-phenyl)-ureido]-phenyl}-piperazine-1-carboxylic acid tert-butyl ester] the same measures were 211 to 214 °C and at least 50%.
For the compound `CCOc1ccccc1NC(=O)Nc1ccc(N2CCN(C(=O)OC(C)(C)C)CC2)nc1` [Example 39, 4-{5-[3-(2-ethoxy-phenyl)-ureido]-pyridin-2-yl}-piperazine-1-carboxylic acid tert-butyl ester], the melting point turned out to be 162 °C. The inhibition at 0.1 µg/mL on mouse DGAT1 was at least 50%.
For `COc1ccc(Cl)cc1NC(=O)Nc1ccc(N2CCN(C(=O)OC(C)(C)C)CC2)nc1` [Example 40, 4-{5-[3-(5-chloro-2-methoxy-phenyl)-ureido]-pyridin-2-yl}-piperazine-1-carboxylic acid tert-butyl ester] the same measures were 155 to 157 °C and at least 50%.
For `CCOc1ccc(F)cc1NC(=O)Nc1ccc(N2CCN(C(=O)OC(C)(C)C)CC2)nc1` [Example 46, 4-{5-[3-(2-ethoxy-5-fluoro-phenyl)-ureido]-pyridin-2-yl}-piperazine-1-carboxylic acid tert-butyl ester] the same measures were 180 °C and at least 50%.
For `COc1ccc(C)cc1NC(=O)Nc1ccc(N2CCN(C(=O)Nc3ccccc3C(F)(F)F)CC2)cc1` [Example 53, 4-{4-[3-(2-methoxy-5-methyl-phenyl)-ureido]-phenyl}-piperazine-1-carboxylic acid (2-trifluoromethyl-phenyl)-amide], the melting point lay within 170 to 171 °C. On mouse DGAT1, the inhibition at 0.1 µg/mL is at least 50%.
With `COc1ccc(C)cc1NC(=O)Nc1ccc(N2CCN(C(=O)Nc3ccccc3C)CC2)cc1` [Example 54, 4-{4-[3-(2-methoxy-5-methyl-phenyl)-ureido]-phenyl}-piperazine-1-carboxylic acid o-tolylamide], the melting point lay within 209 to 211 °C. Moreover, the inhibition at 0.1 µg/mL at mouse DGAT1 is at least 50%.
For `COc1ccc(C)cc1NC(=O)Nc1ccc(N2CCN(C(=O)Nc3ccccc3Br)CC2)cc1` [Example 57, 4-{4-[3-(2-methoxy-5-methyl-phenyl)-ureido]-phenyl}-piperazine-1-carboxylic acid (2-bromo-phenyl)-amide] the same measures were 212 to 214 °C and at least 50%.
For `CCc1ccccc1NC(=O)N1CCN(c2ccc(NC(=O)Nc3cc(C)ccc3OC)cc2)CC1` [Example 58, 4-{4-[3-(2-methoxy-5-methyl-phenyl)-ureido]-phenyl}-piperazine-1-carboxylic acid (2-ethyl-phenyl)-amide] the same measures were 220 to 221 °C and at least 50%.
`COc1ccc(C)cc1NC(=O)Nc1ccc(N2CCN(C(=O)Nc3c(C)cccc3Cl)CC2)cc1` [Example 59, 4-{4-[3-(2-methoxy-5-methyl-phenyl)-ureido]-phenyl}-piperazine-1-carboxylic acid (2-chloro-6-methyl-phenyl)-amide] showed a melting point of 143 to 145 °C. Also, at mouse DGAT1, the inhibition at 0.1 µg/mL was at least 50%.
As to `COc1ccc(C)cc1NC(=O)Nc1ccc(N2CCN(C(=O)Nc3c(C)cccc3[N+](=O)[O-])CC2)cc1` [Example 60, 4-{4-[3-(2-methoxy-5-methyl-phenyl)-ureido]-phenyl}-piperazine-1-carboxylic acid (2-methyl-6-nitro-phenyl)-amide], the melting point fell in the range of 213 to 215 °C. In addition, the inhibition at 0.1 µg/mL at mouse DGAT1 was at least 50%.
For `COc1ccc(C)cc1NC(=O)Nc1ccc(N2CCN(C(=O)Nc3ccccc3C#N)CC2)cc1` [Example 61, 4-{4-[3-(2-methoxy-5-methyl-phenyl)-ureido]-phenyl}-piperazine-1-carboxylic acid (2-cyano-phenyl)-amide] the same measures were 210 to 212 °C and at least 50%.
For `COc1ccc(C)cc1NC(=O)Nc1ccc(N2CCN(C(=O)Nc3c(C)cccc3C)CC2)cc1` [Example 62, 4-{4-[3-(2-methoxy-5-methyl-phenyl)-ureido]-phenyl}-piperazine-1-carboxylic acid (2,6-dimethyl-phenyl)-amide] the same measures were 212 to 214 °C and at least 50%.
For `COc1ccc(C)cc1NC(=O)Nc1ccc(N2CCN(C(=O)Nc3c(F)cccc3C(F)(F)F)CC2)cc1` [Example 64, 4-{4-[3-(2-methoxy-5-methyl-phenyl)-ureido]-phenyl}-piperazine-1-carboxylic acid (2-fluoro-6-trifluoromethyl-phenyl)-amide] the same measures were 134 to 136 °C and at least 50%.
Take `COc1ccc(C)cc1NC(=O)Nc1ccc(N2CCN(C(=O)Nc3c(Cl)cccc3Cl)CC2)cc1` [Example 65, 4-{4-[3-(2-methoxy-5-methyl-phenyl)-ureido]-phenyl}-piperazine-1-carboxylic acid (2,6-dichloro-phenyl)-amide]: the melting point lay within 210 to 221 °C. The inhibition at 0.1 µg/mL on mouse DGAT1 is at least 50%.
For `COc1ccc(C)cc1NC(=O)Nc1ccc(N2CCN(C(=O)Nc3c(Cl)cccc3C(F)(F)F)CC2)cc1` [Example 66, 4-{4-[3-(2-methoxy-5-methyl-phenyl)-ureido]-phenyl}-piperazine-1-carboxylic acid (2-chloro-6-trifluoromethyl-phenyl)-amide] the same measures were 196 to 197 °C and at least 50%.
For `COc1ccc(NC(=O)N2CCN(c3ccc(NC(=O)Nc4cc(C)ccc4OC)cc3)CC2)c(C)c1` [Example 73, 4-{4-[3-(2-methoxy-5-methyl-phenyl)-ureido]-phenyl}-piperazine-1-carboxylic acid (4-methoxy-2-methyl-phenyl)-amide] the same measures were 193 to 195 °C and at least 50%.
Consider `COc1ccc(C)cc1NC(=O)Nc1ccc2c(c1)CCN(C(=O)Nc1ncccc1C)C2` [Example 297, 6-[3-(2-methoxy-5-methyl-phenyl)-ureido]-3,4-dihydro-1H-isoquinoline-2-carboxylic acid (3-methyl-pyridin-2-yl)-amide], for which the inhibition at 0.1 µg/mL on mouse DGAT1 is at least 50%.
Still for that read-out and setting: in the case of `CCOP(=O)(Cc1ccc(NC(=O)N2CCN(c3ccc(NC(=O)Nc4cc(C)ccc4OC)cc3)CC2)c(C)c1)OCC` [Example 390, {4-[(4-{4-[3-(2-methoxy-5-methyl-phenyl)-ureido]-phenyl}-piperazine-1-carbonyl)-amino]-3-methyl-benzyl}-phosphonic acid diethyl ester] it was at least 50%.
